Active and inactive are the calls of the source.
Tests used:
Cytochrome P450 2C19 = Cytochrome P450 2C19 (Homo sapiens, UniProt P33261); experiment: Cytochrome panel assay with activity outcomes. Panel member name: p450-cyp2c19 Compounds with AC50 equal or less than 10 uM are considered active; format: functional
Cytochrome P450 2C9 = Cytochrome P450 2C9 (Homo sapiens, UniProt P11712)
Cytochrome P450 2D6 = Cytochrome P450 2D6 (Homo sapiens, UniProt P10635);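 note: CYP2D6 member of a cytochrome P450 panel assay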
Cytochrome P450 1A2 [1] = biological target: T1, Cytochrome P450 1A2 (Homo sapiens, UniProt P05177);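 note: PubChem cytochrome P450 panel assay, CYP1A2 panel member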
T1 sequence (P05177 whole entry): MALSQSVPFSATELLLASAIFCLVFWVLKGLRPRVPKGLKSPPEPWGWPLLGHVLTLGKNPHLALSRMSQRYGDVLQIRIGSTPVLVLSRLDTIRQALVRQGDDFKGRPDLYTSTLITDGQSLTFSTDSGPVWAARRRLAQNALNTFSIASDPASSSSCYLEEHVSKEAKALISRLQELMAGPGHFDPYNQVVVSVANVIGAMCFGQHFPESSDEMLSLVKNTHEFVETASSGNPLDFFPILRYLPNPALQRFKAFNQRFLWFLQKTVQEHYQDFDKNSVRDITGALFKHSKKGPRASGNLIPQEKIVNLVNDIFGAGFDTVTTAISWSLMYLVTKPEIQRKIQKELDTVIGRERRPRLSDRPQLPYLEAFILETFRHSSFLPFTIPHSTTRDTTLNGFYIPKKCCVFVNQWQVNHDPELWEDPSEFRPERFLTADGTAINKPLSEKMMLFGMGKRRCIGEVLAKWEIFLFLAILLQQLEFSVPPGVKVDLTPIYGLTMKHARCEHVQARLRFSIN

Cytochrome P450 3A4 = Cytochrome P450 3A4 (Homo sapiens, UniProt P08684);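 note: CYP3A4 tested as one member of a cytochrome P450 panel screen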
Chain of Cytochrome P450 3A4 (P08684 whole entry): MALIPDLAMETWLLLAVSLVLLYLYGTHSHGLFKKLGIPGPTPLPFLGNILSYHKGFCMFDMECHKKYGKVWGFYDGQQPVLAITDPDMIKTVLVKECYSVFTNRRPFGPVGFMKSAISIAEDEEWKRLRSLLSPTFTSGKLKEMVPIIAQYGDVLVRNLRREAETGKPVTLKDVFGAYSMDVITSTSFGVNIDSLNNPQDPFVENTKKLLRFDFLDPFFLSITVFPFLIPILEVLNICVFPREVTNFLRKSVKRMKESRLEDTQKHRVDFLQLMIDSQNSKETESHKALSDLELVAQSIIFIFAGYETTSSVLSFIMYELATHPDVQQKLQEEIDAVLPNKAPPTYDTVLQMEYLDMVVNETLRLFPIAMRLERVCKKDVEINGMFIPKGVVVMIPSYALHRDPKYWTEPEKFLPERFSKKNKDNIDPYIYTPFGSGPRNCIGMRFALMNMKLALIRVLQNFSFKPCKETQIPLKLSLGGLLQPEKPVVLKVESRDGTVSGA

CAAX prenyl protease 2 [2] = biological target: CAAX prenyl protease 2 (Saccharomyces cerevisiae S288c, UniProt Q03530); format: biochemical
Chain of CAAX prenyl protease 2 (Saccharomyces cerevisiae S288c, UniProt Q03530) (Q03530 whole entry): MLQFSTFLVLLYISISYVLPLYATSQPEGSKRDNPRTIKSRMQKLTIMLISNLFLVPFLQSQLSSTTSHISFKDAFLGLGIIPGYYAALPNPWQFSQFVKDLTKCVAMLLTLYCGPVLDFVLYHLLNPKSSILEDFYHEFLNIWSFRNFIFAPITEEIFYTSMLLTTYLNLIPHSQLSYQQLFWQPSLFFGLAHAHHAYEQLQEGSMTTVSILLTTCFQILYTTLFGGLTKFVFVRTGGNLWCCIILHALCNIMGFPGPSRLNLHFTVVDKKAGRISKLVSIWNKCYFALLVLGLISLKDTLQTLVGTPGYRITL

CAAX prenyl protease 1 = CAAX prenyl protease 1 (Saccharomyces cerevisiae S288c, UniProt P47154); experiment: yeast CAAX protease Ste24 inhibition – biochemical, S. cerevisiae, plate reader, cherry-pick, dose response (AID 488815)
Chain of CAAX prenyl protease 1 (P47154 whole entry): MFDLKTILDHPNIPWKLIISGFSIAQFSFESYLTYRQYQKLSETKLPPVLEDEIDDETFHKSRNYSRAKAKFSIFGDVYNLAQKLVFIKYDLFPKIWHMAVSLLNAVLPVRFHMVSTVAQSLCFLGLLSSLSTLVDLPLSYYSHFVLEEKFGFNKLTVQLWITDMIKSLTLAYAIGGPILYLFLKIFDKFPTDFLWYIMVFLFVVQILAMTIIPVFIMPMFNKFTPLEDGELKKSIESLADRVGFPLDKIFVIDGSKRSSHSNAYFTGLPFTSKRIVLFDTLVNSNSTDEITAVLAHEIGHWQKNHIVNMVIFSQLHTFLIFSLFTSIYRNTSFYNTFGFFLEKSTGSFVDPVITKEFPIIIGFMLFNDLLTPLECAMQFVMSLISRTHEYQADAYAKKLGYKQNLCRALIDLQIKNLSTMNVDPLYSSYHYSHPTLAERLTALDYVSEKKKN

HEK293 [3] = experiment: cells; format: functional, cell-based; conditions: Homo sapiens
[4] = biological target: T2, Nuclear receptor subfamily 0 group B member 1 (Homo sapiens, UniProt P51843); experiment: Luminescence-based cell-based high throughput dose response assay for inhibitors of the orphan nuclear receptor subfamily 0, group B, member 1 (DAX1; NR0B1). [Related pubchem assays (depositor defined):AID504766, AID504790]; format: functional
T2 sequence (P51843 whole entry): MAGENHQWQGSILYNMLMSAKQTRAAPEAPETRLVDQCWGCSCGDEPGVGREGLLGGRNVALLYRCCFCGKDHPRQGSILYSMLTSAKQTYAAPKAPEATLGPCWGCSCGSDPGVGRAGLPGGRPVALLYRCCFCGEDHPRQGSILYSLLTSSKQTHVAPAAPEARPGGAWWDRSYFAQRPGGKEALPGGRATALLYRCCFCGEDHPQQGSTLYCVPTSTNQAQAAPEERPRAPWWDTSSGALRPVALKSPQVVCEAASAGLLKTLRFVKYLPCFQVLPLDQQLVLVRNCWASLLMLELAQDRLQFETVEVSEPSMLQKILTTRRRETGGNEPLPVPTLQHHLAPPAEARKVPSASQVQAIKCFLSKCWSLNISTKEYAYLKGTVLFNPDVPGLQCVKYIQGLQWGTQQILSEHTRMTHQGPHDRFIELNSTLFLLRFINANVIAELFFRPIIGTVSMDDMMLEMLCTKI

[5] = luciferase reporter signal suppression in cells – H4 neuroglioma cells, luminescence, dose response (AID 1990); format: functional, cell-based
HEK293 [6] = experiment: inhibition of NOD1-driven NF-kB reporter – cell-based, luminescence, uHTS, primary screen (AID 1578); format: functional; conditions: Homo sapiens
HEK293 [7] = experiment: cells; format: functional, cell-based; conditions: Homo sapiens; remark: listed apart in the source
[8] = Luminescence Cell-Based Dose Response HTS to Identify Inhibitors of 5'UTR Stem-Loop Driven Prion Protein mRNA Translation in H4 Neuroglioblastoma Cells. [Related pubchem assays: 1827 (Project Summary), 1813 (Primary HTS)]; format: functional
[9] = alpha-synuclein stem-loop luciferase translation blockers – H4 neuroglioma cells, luminescence, confirmation (AID 1988); format: functional, cell-based
HEK293 [10] = experiment: cells; format: functional, cell-based; conditions: Homo sapiens; remark: listed apart in the source
[11] = biological target: Nucleotide-binding oligomerization domain-containing protein 2 (Homo sapiens, UniProt Q9HC29); experiment: inhibition of NOD2-driven NF-kB reporter – cell-based, luminescence, uHTS, HEK293 (AID 1566); format: functional
Chain of Nucleotide-binding oligomerization domain-containing protein 2 (Q9HC29 whole entry, the tested form may be a part): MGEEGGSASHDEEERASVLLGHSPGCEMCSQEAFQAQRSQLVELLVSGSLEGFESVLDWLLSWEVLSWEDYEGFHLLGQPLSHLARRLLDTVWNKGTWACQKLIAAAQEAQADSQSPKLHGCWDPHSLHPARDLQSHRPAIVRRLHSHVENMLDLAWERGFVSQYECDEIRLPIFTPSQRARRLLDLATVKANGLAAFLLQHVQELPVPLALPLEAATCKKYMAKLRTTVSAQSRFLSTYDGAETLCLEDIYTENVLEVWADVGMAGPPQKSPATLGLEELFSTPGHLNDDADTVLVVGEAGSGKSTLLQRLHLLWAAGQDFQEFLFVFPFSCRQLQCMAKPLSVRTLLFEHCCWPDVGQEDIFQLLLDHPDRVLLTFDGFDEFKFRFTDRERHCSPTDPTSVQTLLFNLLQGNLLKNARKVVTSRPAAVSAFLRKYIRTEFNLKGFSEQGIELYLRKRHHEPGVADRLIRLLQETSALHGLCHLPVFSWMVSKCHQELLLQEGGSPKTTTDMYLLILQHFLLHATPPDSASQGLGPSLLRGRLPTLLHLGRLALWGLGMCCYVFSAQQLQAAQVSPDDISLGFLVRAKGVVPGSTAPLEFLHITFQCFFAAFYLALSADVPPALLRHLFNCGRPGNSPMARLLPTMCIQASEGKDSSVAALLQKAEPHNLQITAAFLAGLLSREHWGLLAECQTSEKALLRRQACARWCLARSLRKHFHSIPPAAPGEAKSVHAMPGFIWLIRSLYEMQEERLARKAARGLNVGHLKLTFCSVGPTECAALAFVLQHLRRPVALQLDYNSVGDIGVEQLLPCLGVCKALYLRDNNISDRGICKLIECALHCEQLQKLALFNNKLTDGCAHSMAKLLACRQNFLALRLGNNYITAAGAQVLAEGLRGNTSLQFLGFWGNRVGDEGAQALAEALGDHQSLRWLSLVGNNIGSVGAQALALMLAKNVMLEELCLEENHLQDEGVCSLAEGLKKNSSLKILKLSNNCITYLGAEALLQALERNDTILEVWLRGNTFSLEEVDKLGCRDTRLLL

HEK293 [12] = experiment: NOD2 signaling inhibitors in MDP-stimulated cells, cell-based, uHTS, luminescence (AID 2001); format: functional; conditions: Homo sapiens
HEK293 [13] = experiment: cells; format: functional, cell-based; conditions: Homo sapiens; remark: listed apart in the source
[14] = biological target: T3, RNA-binding protein pos-1 (Caenorhabditis elegans, UniProt G5EF15); experiment: disruptors of C. elegans POS-1 RNA interaction – biochemical, fluorescence polarization, dose response (AID 1964);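 note: purified POS-1 fused to maltose binding protein made in E. coli; potency of compounds blocking POS-1 binding to fluorescent RNA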
T3 sequence (G5EF15 whole entry): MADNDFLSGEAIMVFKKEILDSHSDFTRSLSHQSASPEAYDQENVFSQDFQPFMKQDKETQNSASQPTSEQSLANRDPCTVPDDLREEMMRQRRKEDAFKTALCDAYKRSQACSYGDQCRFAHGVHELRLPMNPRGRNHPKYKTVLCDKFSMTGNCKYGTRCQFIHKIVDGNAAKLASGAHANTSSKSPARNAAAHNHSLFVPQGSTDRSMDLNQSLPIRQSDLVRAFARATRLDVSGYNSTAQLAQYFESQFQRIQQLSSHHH

[15] = biological target: T4, Zinc finger protein mex-5 (Caenorhabditis elegans, UniProt Q9XUB2); experiment: potency of MEX-5 RNA-binding blockers – biochemical, C. elegans, fluorescence polarization, dose response (AID 1960)
T4 sequence (Q9XUB2 whole entry): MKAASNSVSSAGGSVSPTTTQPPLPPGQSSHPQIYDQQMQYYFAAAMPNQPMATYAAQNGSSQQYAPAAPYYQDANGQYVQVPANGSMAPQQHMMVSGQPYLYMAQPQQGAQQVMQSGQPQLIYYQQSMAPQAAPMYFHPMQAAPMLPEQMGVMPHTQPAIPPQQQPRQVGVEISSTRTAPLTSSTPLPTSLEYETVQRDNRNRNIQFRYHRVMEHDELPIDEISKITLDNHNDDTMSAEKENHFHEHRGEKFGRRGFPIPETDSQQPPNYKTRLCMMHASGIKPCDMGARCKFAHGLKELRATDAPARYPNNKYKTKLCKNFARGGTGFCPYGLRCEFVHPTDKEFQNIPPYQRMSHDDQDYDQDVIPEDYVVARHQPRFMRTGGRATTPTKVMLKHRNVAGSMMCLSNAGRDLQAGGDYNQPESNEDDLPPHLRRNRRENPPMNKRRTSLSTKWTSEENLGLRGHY

Beta-lactamase [16] = biological target: Beta-lactamase (Pseudomonas aeruginosa, UniProt Q79MP6);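 note: biochemical dose-response test of metallo-beta-lactamase enzyme inhibition, read out by epi-absorbance; purified recombinant IMP-1 metallo-beta-lactamase with nitrocefin as substrate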
Beta-lactamase [17] = biological target: Beta-lactamase (Salmonella choleraesuis (strain SC-B67), UniProt Q5J463)
[18] = biological target: UDP-galactopyranose mutase (Mycobacterium tuberculosis, UniProt P9WIQ1); experiment: Inhibitors of Mycobacterium tuberculosis UDP-galactopyranose mutase (UGM) enzyme Measured in Biochemical System Using Plate Reader - 2105-02_Inhibitor_Dose_CherryPick_Activity. [Related pubchem assays (depositor defined):AID504439]
Chain of UDP-galactopyranose mutase (P9WIQ1 whole entry): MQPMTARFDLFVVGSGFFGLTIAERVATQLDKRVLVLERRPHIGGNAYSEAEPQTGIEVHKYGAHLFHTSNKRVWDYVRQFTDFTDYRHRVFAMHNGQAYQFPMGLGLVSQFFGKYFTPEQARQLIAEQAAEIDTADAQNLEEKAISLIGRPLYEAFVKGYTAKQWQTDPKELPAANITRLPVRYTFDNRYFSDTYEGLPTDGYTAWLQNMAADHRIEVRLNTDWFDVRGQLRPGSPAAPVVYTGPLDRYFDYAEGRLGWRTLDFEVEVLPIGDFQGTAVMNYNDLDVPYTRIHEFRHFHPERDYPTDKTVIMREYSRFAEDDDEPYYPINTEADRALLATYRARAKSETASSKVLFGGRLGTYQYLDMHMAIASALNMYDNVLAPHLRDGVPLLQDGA

Keap1/Nrf2 = Keap1/Nrf2 (Homo sapiens, UniProt Q14145); experiment: disruptors of Keap1 binding to Nrf2 peptide – biochemical, fluorescence polarization, cherry-picked samples, dose response (AID 588683)
Chain of Keap1/Nrf2 (Q16236 whole entry): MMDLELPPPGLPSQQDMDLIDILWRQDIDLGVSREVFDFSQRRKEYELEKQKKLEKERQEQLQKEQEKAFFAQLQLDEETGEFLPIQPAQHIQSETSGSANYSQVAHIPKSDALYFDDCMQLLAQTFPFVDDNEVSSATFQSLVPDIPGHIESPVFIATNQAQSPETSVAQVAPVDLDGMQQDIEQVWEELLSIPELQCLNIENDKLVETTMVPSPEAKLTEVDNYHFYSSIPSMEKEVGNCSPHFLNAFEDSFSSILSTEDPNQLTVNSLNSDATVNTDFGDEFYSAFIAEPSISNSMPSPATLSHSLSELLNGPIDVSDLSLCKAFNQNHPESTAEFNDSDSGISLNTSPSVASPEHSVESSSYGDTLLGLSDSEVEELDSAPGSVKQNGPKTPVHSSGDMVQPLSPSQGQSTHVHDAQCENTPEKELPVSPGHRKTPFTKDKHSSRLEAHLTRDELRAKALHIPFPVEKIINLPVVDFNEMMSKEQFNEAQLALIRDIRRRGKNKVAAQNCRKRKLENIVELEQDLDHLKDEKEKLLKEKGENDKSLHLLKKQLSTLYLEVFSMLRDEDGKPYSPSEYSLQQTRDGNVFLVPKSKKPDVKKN
Chain of Keap1/Nrf2 (Q14145 whole entry): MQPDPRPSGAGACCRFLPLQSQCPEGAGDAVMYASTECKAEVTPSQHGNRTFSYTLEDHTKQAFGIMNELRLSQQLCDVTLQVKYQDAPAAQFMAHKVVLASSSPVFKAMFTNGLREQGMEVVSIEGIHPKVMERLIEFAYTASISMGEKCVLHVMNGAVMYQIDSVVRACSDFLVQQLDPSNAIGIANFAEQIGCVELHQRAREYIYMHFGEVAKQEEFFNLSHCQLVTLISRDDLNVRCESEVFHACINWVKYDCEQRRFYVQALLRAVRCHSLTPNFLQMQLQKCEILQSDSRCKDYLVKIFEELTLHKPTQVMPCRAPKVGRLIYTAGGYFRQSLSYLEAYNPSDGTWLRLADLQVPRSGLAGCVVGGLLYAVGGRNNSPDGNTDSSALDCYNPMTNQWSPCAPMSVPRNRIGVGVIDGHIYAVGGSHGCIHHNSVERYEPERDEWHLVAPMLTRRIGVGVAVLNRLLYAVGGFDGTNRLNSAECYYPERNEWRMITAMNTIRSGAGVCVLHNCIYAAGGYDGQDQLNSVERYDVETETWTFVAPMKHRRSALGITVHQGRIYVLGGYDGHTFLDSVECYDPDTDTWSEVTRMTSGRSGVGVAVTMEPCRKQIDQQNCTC

Cytochrome P450 1A2 [19] = biological target: T1, Cytochrome P450 1A2; remark: listed apart in the source
[20] = biological target: Luciferin 4-monooxygenase (Photinus pyralis, UniProt P08659); experiment: inhibition of purified Photinus pyralis luciferase – biochemical, luminescence, dose response (AID 1891)
[21] = Luminescence Cell-Based Dose Confirmation HTS to Identify Inhibitors of Platelet Dense Granule Release. [Related pubchem assays: 1663 (Primary HTS), 1678 (Summary of Project)]; format: functional
HeLa [22] = experiment: ATP-based viability loss in HeLa cells – cell-based, CellTiter-Glo luminescence, cherry-pick samples, cytotoxicity control for MITF activator project, dose response (AID 540259); format: functional; conditions: Homo sapiens
HeLa [23] = experiment: viability loss in HeLa cells – cell-based, 24 h, cherry-picked samples, cytotoxicity control, dose response (AID 504726); format: functional; conditions: Homo sapiens;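 note: potency for cytotoxicity as loss of luminescence signal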
ORF 73 = ORF 73 (Human herpesvirus 8, UniProt O40947); experiment: KSHV LANA DNA-binding disruption – biochemical, fluorescence polarization, cherry-picked samples, dose response (AID 504725); parameters: species or system Human gammaherpesvirus 8;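 note: fluorescence polarization of a labeled DNA duplex reporting LANA DNA binding; potency is for inhibitors that block LANA binding to the DNA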
Trypsin = Trypsin (Sus scrofa, UniProt P00761); experiment: trypsin protease activity blockade – biochemical, quenched peptide fluorescence, cherry-pick, selectivity assay for Rce1 protease inhibitor project, dose response (AID 488789)
Chain of Trypsin (P00761 whole entry): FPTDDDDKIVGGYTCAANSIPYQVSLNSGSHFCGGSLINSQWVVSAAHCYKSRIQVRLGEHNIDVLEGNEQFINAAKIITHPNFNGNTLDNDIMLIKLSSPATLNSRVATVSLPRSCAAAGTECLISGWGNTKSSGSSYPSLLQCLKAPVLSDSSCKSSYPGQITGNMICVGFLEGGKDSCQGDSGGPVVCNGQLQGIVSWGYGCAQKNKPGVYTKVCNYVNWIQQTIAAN

CAAX prenyl protease 2 [24] = biological target: CAAX prenyl protease 2 (Homo sapiens, UniProt Q9Y256); experiment: inhibition of Ras-converting CAAX protease Rce1 – biochemical, yeast membranes, quenched-peptide fluorescence, cherry-pick, dose response (AID 588849)
Chain of CAAX prenyl protease 2 (Homo sapiens, UniProt Q9Y256) (Q9Y256 whole entry): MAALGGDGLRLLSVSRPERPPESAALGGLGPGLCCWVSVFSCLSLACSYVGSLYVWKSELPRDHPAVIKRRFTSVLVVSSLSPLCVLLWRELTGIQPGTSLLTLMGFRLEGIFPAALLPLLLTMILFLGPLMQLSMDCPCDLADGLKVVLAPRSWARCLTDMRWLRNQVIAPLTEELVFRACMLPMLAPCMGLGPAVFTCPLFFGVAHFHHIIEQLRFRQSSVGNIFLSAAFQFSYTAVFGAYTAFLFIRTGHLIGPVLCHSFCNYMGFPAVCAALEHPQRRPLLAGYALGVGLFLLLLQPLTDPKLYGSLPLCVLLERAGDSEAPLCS

[25] = Luminescence Cell-Based Dose Response HTS to Identify Activators of Luciferase Translation or Activity in H4 […] Cells. [Related pubchem assays: 1829 (Project Summary), 1814 (Primary HTS)]; format: functional
H4 = experiment: Luminescence Cell-Based Dose Response HTS to Identify Activators of 5'UTR Stem-Loop Driven Prion Protein mRNA Translation in H4 Neuroglioblastoma Cells. [Related pubchem assays: 1829 (Project Summary), 1814 (Primary HTS)]; format: functional; conditions: Homo sapiens

Chain of Cytochrome P450 2C9 (P11712 whole entry): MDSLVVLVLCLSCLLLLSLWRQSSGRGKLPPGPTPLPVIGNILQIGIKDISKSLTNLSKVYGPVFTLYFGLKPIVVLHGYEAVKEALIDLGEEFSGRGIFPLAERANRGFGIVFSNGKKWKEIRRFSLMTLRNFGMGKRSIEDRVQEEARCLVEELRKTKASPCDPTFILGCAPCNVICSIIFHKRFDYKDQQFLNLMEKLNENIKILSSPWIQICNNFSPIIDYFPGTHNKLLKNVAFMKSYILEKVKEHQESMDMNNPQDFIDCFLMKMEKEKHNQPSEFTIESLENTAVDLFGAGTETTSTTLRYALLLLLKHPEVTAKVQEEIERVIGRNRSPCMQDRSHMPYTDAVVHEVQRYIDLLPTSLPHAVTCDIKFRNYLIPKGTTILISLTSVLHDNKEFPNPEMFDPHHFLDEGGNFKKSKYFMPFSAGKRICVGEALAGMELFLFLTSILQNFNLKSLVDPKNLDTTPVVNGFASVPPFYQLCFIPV

O=C(O)c1cc(/N=N\c2ccc(S(=O)(=O)Nc3ccccn3)cc2)ccc1O
AC50 (Cytochrome P450 2C19): inactive | AC50 (Cytochrome P450 2C9): 7.94 µM (inconclusive) | AC50 (Cytochrome P450 2D6): inactive | AC50 (Cytochrome P450 1A2 [1]): inactive | AC50 (Cytochrome P450 3A4): inactive

O=C(c1ccc2c(c1)N(Cc1ccccc1)C(=O)CS2)N1CCOCC1
AC50 (Cytochrome P450 2C19; read-out: AC50): 28.2 µM (inconclusive) | AC50 (Cytochrome P450 2C9): 14.1 µM (inconclusive) | AC50 (Cytochrome P450 1A2 [1]): inconclusive

CN(C)C(=O)COc1ccc2ccc(=O)oc2c1
AC50 (CAAX prenyl protease 2 [2]): 41.5 µM (active) | AC50 (CAAX prenyl protease 1): 6.76 µM (active)

CC(=O)NNc1ncnc2ccccc12
IC50 (HEK293 [3]): > 67.5 µM (inactive) | IC50 [4]: > 67.5 µM (inactive)

CC(C)COc1ccc(C(=O)Nc2sc3c(c2C(=O)O)CC(C)(C)OC3)cc1
EC50 [5]: 11.3 µM (active) | EC50 (HEK293 [6]): 2.59 µM (active) | IC50 (HEK293 [7]): > 20 µM (inactive) | EC50 [8]: 11.2 µM (active) | EC50 [9]: > 120 µM (not active) | IC50 (HEK293 [10]): > 20 µM (inactive) | EC50 [11]: 0.22 µM (active) | IC50 (HEK293 [12]): 5.19 µM (active) | IC50 (HEK293 [13]): 12.6 µM (active)

CN1C(=O)c2cccc3c(N)ccc(c23)C1=O
EC50 [14]: 0.363 µM (inconclusive) | EC50 [15]: 0.116 µM (inconclusive) | IC50 (Beta-lactamase [16]): 10.5 µM (inactive) | IC50 (Beta-lactamase [17]): 5.56 µM (active) | AC50 [18]: 1.59 µM (active) | AC50 (Keap1/Nrf2): 0.839 µM (active)

COc1ccc(-n2c(=O)c(-c3ccccc3)nc3cnc(N4CCN(C)CC4)nc32)cc1
AC50 (Cytochrome P450 1A2 [19]): 20 µM (inconclusive) | AC50 (Cytochrome P450 2C9): 31.6 µM (inconclusive) | AC50 (Cytochrome P450 3A4): inconclusive

Cc1cc(/C=C2\SC(=S)N(C)C2=O)c(C)n1-c1cccc(O)c1
EC50 (HEK293 [6]): 9.29 µM (active) | IC50 (HEK293 [7]): 4.55 µM (active) | IC50 (HEK293 [10]): 9.54 µM (active) | EC50 [11]: 1.1 µM (active) | IC50 (HEK293 [12]): 0.695 µM (active) | IC50 (HEK293 [13]): > 20 µM (inactive)

COc1ccccc1NC(=O)Nc1ccc(C(=O)N2CCCCC2)cc1
EC50 [20]: 2.01 µM (active) | EC50 [21]: 6.67 µM (active) | AC50 (HeLa [22]): 67 µM (active)

CN1C(=O)C(=N)c2c3ccccc3c(O)c3c(Br)ccc1c23
EC50 [14]: 0.66 µM (inconclusive) | EC50 [15]: < 0.06 µM (inconclusive) | AC50 (HeLa [23]): 303 µM (active) | AC50 (ORF 73): 2.73 µM (active) | AC50 [18]: 0.519 µM (active) | AC50 (Keap1/Nrf2): 0.54 µM (active)

CS(=O)(=O)Nc1ccc(C2=NN(S(C)(=O)=O)C(c3cccs3)C2)cc1 (stereo not given)
AC50 (Trypsin): 4.41 µM (active) | AC50 (CAAX prenyl protease 2 [2]): 6.27 µM (active) | AC50 (CAAX prenyl protease 2 [24]): 2.38 µM (active)

COCc1cc(C)n(CC(=O)NCc2ccccc2)c(=O)c1C#N
AC50 (CAAX prenyl protease 1): 7.22 µM (active) | AC50 (CAAX prenyl protease 2 [24]): 25.8 µM (active)

CCn1c(C(=O)OC)cc2c1ccn2-c1ccc(F)cc1
EC50 [25]: 69.7 µM (active) | EC50 (H4): > 120 µM (not active) | AC50 (HeLa [22]): 91.9 µM (active)

CC1(C)Nc2ccccc2C(=O)N1c1ccc(Br)cc1
IC50 (HEK293 [3]): > 67.5 µM (inactive) | IC50 [4]: > 67.5 µM (inactive)

Reference: ChEMBL document CHEMBL1201862, “PubChem BioAssay data set” (2004)
